Values quoted from earlier work in patent US20210337800A1, “METHOD AND SYSTEM OF IMPROVING THE PERSONAL PROTECTIVE EQUIPMENT OF […] AND THE GENERAL PUBLIC USING ANT[…]” (Sockdocs Inc., priority 2020, published 2021).

System: viruses
Details: testing in 2006; no method or virus named

In the case of `CCCCCCCCCCCCCCCCCC[N+](C)(C)CCC[Si](OC)(OC)OC.[Cl-]` [3-(trimethoxysilyl) propyldimethyloctadecyl ammonium chloride], the anti-viral activity is given as “showed anti-viral activity”.
